According to patent US20080171710A1, “The Redox/Fyn/c-Cbl Pathway” (priority 2007, published 2008):

What was measured:
O-2A/OPCs [1] = test: In vitro BrdU incorporation assay; format: cell-based, rat
Procedure, shortened: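 Surface antigens stained on live or 2% paraformaldehyde-fixed cells; intracellular ones after ice-cold methanol (4 min) or 0.5% Triton (15 min). Fluorescent secondary antibodies applied for 20 min.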

O-2A/OPCs [2] = test: Clonal analysis of division and differentiation; format: cell-based, rat
Description: O-2A/OPCs purified from P7 rat optic nerve were plated in. poly-L-lysine-coated 25-cm^2 flasks at clonal density with DMBM medium in the presence of 10-ng/ml PDGF as previously described. After 24-h recovery, cells were treated with different toxicants, each for 3 d, until visual inspection and immunostaining was performed. NAC was added 1 h before exposure to other toxicants for NAC pretreatment, and NAC co-exists throughout the culture period. The numbers of O-2A/OPCs and oligodendrocytes in each clone were determined by counting under fluorescent microscope. […] Experiments were performed in triplicate in at least two independent experiments.

SRE-luciferase reporter = SRE-luciferase reporter assay; format: cell-based, rat
Description: (§1) Cells were deprived of PDGF-AA for 5 h before re-exposure to PDGF-AA (10 ng/ml) for 1 h for Western blot or 6 h for luciferase assays of pathway activation. Transient transfection was performed using Fugene6 (Roche, Basel, Switzerland ) transfection solution according to the manufacturer's protocol. For the luciferase assay, cells seeded in 12-well plates were transfected with a reporter plasmid SRE-Luc(firefly) or NF-κB-Luc(firefly) (BD-Clontech, Palo Alto, Calif., United States) and an internal control plasmid pRLSV40-LUC. Analyses of luciferase activity were performed according to the protocol of the Dual Luciferase Assay System (Promega, Madison, Wis., United States), which uses an internal control of Renilla luciferase for quantification, and relative light units were measured using a luminometer.

[3] = system: NF-κB-luciferase reporter; test: NF-κB-luciferase reporter assay; format: cell-based, rat
Description: as §1

Akt = format: cell-based, rat
Procedure, shortened: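 Cells deprived of PDGF-AA for 5 h, then re-exposed to PDGF-AA (10 ng/ml) for 1 h. Lysates in RIPA buffer resolved by SDS-PAGE and immunoblotted with phospho-specific and total Akt or Erk antibodies, detected by HRP chemiluminescence.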

Erk1/2 = format: cell-based, rat
PDGFRα [4] = test: PDGFRα phosphorylation (Western blot, anti-PDGFRα(pY742)); format: cell-based, rat
PDGFRα [5] = format: cell-based, rat
EGFR = format: cell-based, rat
Procedure, shortened: (§2)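 Western blot of cell lysates or sonicated tissue in RAPI buffer, SDS-PAGE to PVDF, primary antibodies (phospho-Erk, phospho-Akt, receptor, phospho-tyrosine), HRP secondary and luminol detection. Signaling analysed in presence of the cognate ligand: EGF for EGFR, NT-3 for TrkC, HGF for c-Met.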

c-Met = format: cell-based, rat
Procedure, shortened: as §2

Fyn = target: T1, Fyn (Rattus norvegicus, UniProt Q62844); format: cell-based
T1 construct: 250 μg of total cell lysates were immunoprecipitated with anti-Fyn antibody; endogenous in cells; host or cells: primary rat O-2A/OPCs
T1 sequence (Q62844 whole entry): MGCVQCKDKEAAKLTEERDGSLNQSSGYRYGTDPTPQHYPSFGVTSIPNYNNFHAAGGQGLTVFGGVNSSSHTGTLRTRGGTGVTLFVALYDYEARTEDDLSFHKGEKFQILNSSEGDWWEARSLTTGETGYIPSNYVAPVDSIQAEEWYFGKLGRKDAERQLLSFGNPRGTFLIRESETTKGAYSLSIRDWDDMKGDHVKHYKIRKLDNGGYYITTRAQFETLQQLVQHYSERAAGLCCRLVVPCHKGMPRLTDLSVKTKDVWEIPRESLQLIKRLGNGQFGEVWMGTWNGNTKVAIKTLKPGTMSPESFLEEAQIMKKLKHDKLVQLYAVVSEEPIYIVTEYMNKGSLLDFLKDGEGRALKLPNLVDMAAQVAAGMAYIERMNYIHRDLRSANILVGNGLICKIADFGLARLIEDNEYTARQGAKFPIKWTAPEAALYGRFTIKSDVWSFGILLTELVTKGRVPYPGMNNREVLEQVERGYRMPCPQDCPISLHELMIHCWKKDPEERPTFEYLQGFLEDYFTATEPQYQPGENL
Procedure, shortened: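 Rat O-2A/OPC lysates (250 μg total protein) immunoprecipitated with anti-Fyn antibody. Washed Fyn immune complexes assayed for tyrosine kinase activity with a universal tyrosine kinase kit.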

[6] = 30 nM MeHg, 1 μM Pb, 5 μM paraquat
[7] = NAC 1 mM, PP1 100 nM or ICI 182,780 200 nM with TMX

## [CH3][Hg][Cl] [MeHg, methylmercury]
O-2A/OPCs [1]; 20 nM MeHg, stimulation with PDGF
  drop in the percentage of O-2A/OPCs incorporating BrdU: approximately 25%
O-2A/OPCs [2]; MeHg exposure, PDGF
  clone composition (cell division at the clonal level): reduction in the number of large clones and an increase in the number of small clones
SRE-luciferase reporter; 30 nM MeHg
  NT-3-induced expression from SRE-luciferase reporter: no reduction in NT-3-induced expression
SRE-luciferase reporter; 30 nM MeHg, 24 h
  PDGF-induced SRE-luciferase reporter expression: reduced expression
[3]; 30 nM MeHg, 24 h
  PDGF-induced NF-κB-luciferase reporter expression: decreased
Akt; 30 nM MeHg, 24 h
  PDGF-induced Akt phosphorylation: decreased
Erk1/2; 30 nM MeHg
  NT-3-induced Erk1/2 phosphorylation: no reduction in Erk1/2 phosphorylation
Erk1/2; 30 nM MeHg 24 h, 1 μM Pb, 5 μM paraquat
  PDGF-induced Erk1/2 phosphorylation after toxicant exposure: reduced ERK1/2 phosphorylation
PDGFRα [4]; [6]
  phosphorylation of PDGFRα after toxicant exposure: also reduced
PDGFRα [5]; MeHg 20 nM plus cycloheximide, versus cycloheximide alone
  PDGFRα loss in the presence of cycloheximide: further accelerated receptor loss
PDGFRα [5]; MeHg 30 nM, 1 μM Pb, 5 μM paraquat
  total levels of PDGFRα after toxicant exposure: reduction in levels of the PDGFRα itself
EGFR; MeHg, Pb or paraquat
  levels of EGFR after toxicant exposure: reductions
c-Met; MeHg, Pb or paraquat
  levels of c-Met after toxicant exposure: reductions
Fyn; [6]
  Fyn activation after toxicant exposure: stimulated Fyn activation

## CC(=O)N[C@@H](CS)C(=O)O [NAC, N-acetyl-L-cysteine]
O-2A/OPCs [1]; with TMX, 2 days
  effect on TMX effect on cell proliferation: blocked
O-2A/OPCs [2]; co-exposure with MeHg, 1 mM NAC or PP1
  effect on MeHg-induced suppression of cell division at the clonal level: blocked
SRE-luciferase reporter; 1 mM NAC with MeHg
  effect on MeHg suppression of SRE reporter activity: rescued normal level
[3]; 1 mM NAC with MeHg
  effect on MeHg suppression of Nf-κB reporter activity: rescued normal level
Akt; 1 mM NAC with EtOH
  effect on EtOH suppression of Akt phosphorylation: rescued
Akt; 1 mM NAC with MeHg
  effect on MeHg suppression of Akt phosphorylation: rescued
Erk1/2; 1 mM NAC with EtOH
  effect on EtOH suppression of Erk1/2 phosphorylation: rescued
Erk1/2; co-exposure with Aβ(1-42)
  effect on Aβ(1-42) suppression of PDGF-mediated Erk1/2 phosphorylation: blocked
Erk1/2; co-treatment with MeHg
  effect on MeHg-associated suppression of Erk1/2 phosphorylation: rescued
Erk1/2; co-treatment with Pb or paraquat
  effect on Pb and paraquat effects on Erk1/2 phosphorylation: protected
PDGFRα [4]; co-exposure with MeHg
  effect on MeHg-induced suppression of PDGFRα phosphorylation: rescued
PDGFRα [5]; [7]
  effect on TMX-induced reductions in levels of PDGFRα: blocked
PDGFRα [5]; NAC added 1 hr before EtOH
  effect on EtOH-induced reduction of PDGFRα levels: substantial rescue
PDGFRα [5]; co-exposure with Aβ
  effect on Aβ-induced reduction in PDGFRα levels: blocked
PDGFRα [5]; together with MeHg
  effect on MeHg-induced reductions in levels of PDGFRα: prevented
PDGFRα [5]; together with Pb (1 μM) or paraquat (5 μM)
  effect on Pb- and paraquat-induced reductions in levels of PDGFRα: protected
EGFR; NAC added 1 hr before EtOH
  effect on EtOH-induced reduction of EGFR levels: substantial rescue
EGFR; NAC with MeHg, Pb, or paraquat
  effect on toxicant-associated reductions in EGFR levels: protected
c-Met; NAC added 1 hr before EtOH
  effect on EtOH-induced reduction of c-Met levels: substantial rescue
c-Met; NAC with MeHg, Pb, or paraquat
  effect on toxicant-associated reductions in c-Met levels: protected
Fyn; 1 mM NAC in the absence of toxicants
  effect on basal Fyn activity: only a slight, insignificant effect
Fyn; [7]
  effect on TMX-induced activation of Fyn: blocked
Fyn; added 1 h before MeHg
  effect on MeHg-induced Fyn activation: blocked
Fyn; added 1 h before Pb or paraquat
  effect on Pb- and paraquat-induced Fyn activation: blocked
